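Cells were grown in 96-well plates and exposed to each compound for 48 hours at five concentrations; endpoints were interpolated linearly between bracketing concentrations, or set to the highest concentration if not reached. GI50 marks 50% less growth.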 Active and inactive are the calls of the source. Cut-off read from the data, not from the text of the source: active = GI50 up to about 1.1 µM and inactive = higher.
How the values were obtained:
Experiment in all cases: inhibition of tumour cell growth, NCI panel, 48 h
HCT-15 = test system: HCT-15
HOP-62 = test system: HOP-62
SK-OV-3 = test system: SK-OV-3
SK-MEL-2 = test system: SK-MEL-2
SF-539 = test system: SF-539
RXF 393 = test system: RXF 393
HT-29 = test system: HT-29
RPMI-8226 = test system: RPMI-8226
786-0 = test system: 786-0
KM12 = test system: KM12
SN12C = test system: SN12C
CCRF-CEM = test system: CCRF-CEM
MOLT-4 = test system: MOLT-4
U-251 = test system: U-251
SF-295 = test system: SF-295
KM-20L2 = test system: KM-20L2
OVCAR-5 = test system: OVCAR-5

SMILES	GI50 (HCT-15)	GI50 (HOP-62)	GI50 (SK-OV-3)	GI50 (SK-MEL-2)	GI50 (SF-539)	GI50 (RXF 393)	GI50 (HT-29)	GI50 (RPMI-8226)	GI50 (786-0)	GI50 (KM12)	GI50 (SN12C)	GI50 (CCRF-CEM)	GI50 (MOLT-4)	GI50 (U-251)	GI50 (SF-295)	GI50 (KM-20L2)	GI50 (OVCAR-5)
O=C1C=C(O)C(=Cc2c(O)cc(O)cc2O)C(O)=C1	> 100 µM	> 100 µM (inactive)	> 100 µM (inactive)	> 100 µM (inactive)	> 100 µM (inactive)	> 100 µM (inactive)	> 100 µM (inactive)	> 100 µM (inactive)	> 100 µM (inactive)	> 100 µM (inactive)	> 100 µM (inactive)	> 100 µM (inactive)	> 100 µM (inactive)	> 100 µM (inactive)	> 100 µM (inactive)	> 100 µM (inactive)	> 100 µM (inactive)
O=C(CCC(=O)Nc1ccc(Cl)cc1)CC(=O)c1ccc2ccccc2c1	> 100 µM	> 100 µM (inactive)	> 100 µM (inactive)	> 100 µM (inactive)	> 100 µM (inactive)	> 100 µM (inactive)	> 100 µM (inactive)	> 100 µM (inactive)	> 100 µM (inactive)	> 100 µM (inactive)	> 100 µM (inactive)	> 100 µM (inactive)	> 100 µM (inactive)	> 100 µM (inactive)	> 100 µM (inactive)	> 100 µM (inactive)	> 100 µM (inactive)
O=C(Nc1nc2ncn(CCO)c2c(=S)[nH]1)c1ccccc1	> 100 µM	> 100 µM (inactive)	> 100 µM (inactive)	> 100 µM (inactive)	> 100 µM (inactive)	> 100 µM (inactive)	> 100 µM (inactive)	> 100 µM (inactive)	> 100 µM (inactive)	> 100 µM (inactive)	> 100 µM (inactive)	> 100 µM (inactive)		> 100 µM (inactive)	> 100 µM (inactive)	> 100 µM (inactive)	> 100 µM (inactive)
Cc1ccc(C2=NO[C@@H]3C(=O)N(c4ccc(Cc5ccc(N6C(=O)[C@H]7C(c8ccc(C)cc8)=NO[C@H]7C6=O)cc5)cc4)C(=O)[C@H]23)cc1	> 100 µM	> 100 µM (inactive)	> 100 µM (inactive)	> 100 µM (inactive)	> 100 µM (inactive)	> 100 µM (inactive)	> 100 µM (inactive)	> 100 µM (inactive)	> 100 µM (inactive)	> 100 µM (inactive)	> 100 µM (inactive)	> 100 µM (inactive)	> 10 µM (inactive)	> 100 µM (inactive)	> 100 µM (inactive)	> 100 µM (inactive)	> 100 µM (inactive)
C/C(=C1/CCCC2(N=NCC2c2ccccc2)C1=O)c1ccccc1 (stereo unspecified)	35.1 µM		30.7 µM (inactive)	19.1 µM (inactive)	41.2 µM (inactive)	25.4 µM (inactive)	20.5 µM (inactive)	20 µM (inactive)	46.7 µM (inactive)	15.9 µM (inactive)	40.5 µM (inactive)	19.6 µM (inactive)	14.4 µM (inactive)	23.8 µM (inactive)	30.9 µM (inactive)	25.6 µM (inactive)	36 µM (inactive)
C/C(=N\NC(N)=S)c1ccc(C)cc1C	> 100 µM	> 100 µM (inactive)	> 100 µM (inactive)	37.2 µM (inactive)	> 100 µM (inactive)	8.2 µM (inactive)	28.6 µM (inactive)	> 100 µM (inactive)	> 100 µM (inactive)	60.8 µM (inactive)	> 100 µM (inactive)	> 100 µM (inactive)	41.8 µM (inactive)	> 100 µM (inactive)	> 100 µM (inactive)	> 100 µM (inactive)	27 µM (inactive)
C1OC1CN1CCN(CC2CO2)CC1 (stereo unspecified)	> 100 µM	24.2 µM (inactive)	> 96.8 µM (inactive)	> 100 µM (inactive)	37.4 µM (inactive)	> 100 µM (inactive)	> 100 µM (inactive)	> 66.8 µM (inactive)	35.3 µM (inactive)	> 100 µM (inactive)	32.1 µM (inactive)	2.49 µM (inactive)	3.28 µM (inactive)	45.4 µM (inactive)	42 µM (inactive)	> 100 µM (inactive)	> 100 µM (inactive)
CC(C)NC(C)C(C)c1ccccc1 (stereo unspecified)		> 100 µM (inactive)	> 100 µM (inactive)	> 100 µM (inactive)	> 100 µM (inactive)	> 100 µM (inactive)	> 100 µM (inactive)	> 100 µM (inactive)	> 100 µM (inactive)	> 100 µM (inactive)	> 100 µM (inactive)	> 100 µM (inactive)	> 100 µM (inactive)	> 100 µM (inactive)	> 100 µM (inactive)	> 100 µM (inactive)	
COC1[C@H](NC(=O)OC(C)(C)C)C(=O)N1Cc1ccccc1 (stereo partly specified)	> 100 µM	> 100 µM (inactive)	> 100 µM (inactive)	> 100 µM (inactive)	> 100 µM (inactive)	> 100 µM (inactive)	> 100 µM (inactive)	> 100 µM (inactive)	> 100 µM (inactive)	> 100 µM (inactive)	> 100 µM (inactive)	> 100 µM (inactive)	> 100 µM (inactive)	> 100 µM (inactive)	> 100 µM (inactive)	> 100 µM (inactive)	> 100 µM (inactive)
COc1cc2c(c(OC)c1OC)-c1ccc(SC)c(=O)cc1[C@@H](NCc1ccc(F)cc1)CC2	< 0.0075 µM	< 0.0075 µM (active)	< 0.0075 µM (active)	< 0.0075 µM (active)	< 0.0075 µM (active)	< 0.0075 µM (active)	< 0.0075 µM (active)	< 0.0075 µM (active)	< 0.0075 µM (active)	< 0.0075 µM (active)	< 0.0075 µM (active)	< 0.0075 µM (active)	< 0.0075 µM (active)	< 0.0075 µM (active)	< 0.0075 µM (active)	< 0.0075 µM (active)	2.54 µM (inactive)

Source: ChEMBL document CHEMBL1201862, “PubChem BioAssay data set” (2004)
